# Biological target: T1, full length SGK1 (Homo sapiens, UniProt O00141)
# T1 construct: 125 μM full length SGK1 (Life Technologies Part #PR7358A); purchased Life Technologies PR7358A
# T1 sequence (O00141 1-431): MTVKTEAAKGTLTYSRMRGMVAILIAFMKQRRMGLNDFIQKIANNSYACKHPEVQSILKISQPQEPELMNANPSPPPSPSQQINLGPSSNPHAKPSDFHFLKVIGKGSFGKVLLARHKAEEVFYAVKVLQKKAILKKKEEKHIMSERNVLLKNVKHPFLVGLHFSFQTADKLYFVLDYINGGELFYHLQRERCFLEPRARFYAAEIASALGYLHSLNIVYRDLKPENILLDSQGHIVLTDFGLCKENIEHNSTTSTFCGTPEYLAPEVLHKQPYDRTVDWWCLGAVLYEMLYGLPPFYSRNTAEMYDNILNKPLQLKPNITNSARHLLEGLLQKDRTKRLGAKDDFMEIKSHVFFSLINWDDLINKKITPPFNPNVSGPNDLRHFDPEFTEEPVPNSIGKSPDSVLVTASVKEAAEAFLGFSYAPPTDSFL
# Test: SGK1 inhibition Assay A (Caliper LabChip electrophoretic separation of fluorescent peptide substrate and phosphorylated product)
# Assay type: biochemical
# Details: Assay A; 20 μM ATP, 40 min incubation; read-out: SGK1 IC50
row,Structure (SMILES),IC50 [nM]
1,"Nc1ncnn2c(-c3ccnc(C(F)F)c3)cc(N3CCC[C@@H](NC(=O)c4ccc(-c5ccnc(C(F)F)c5)s4)C3)c12 [Example 542, (R)-N-(1-(4-amino-7-(2-(difluoromethyl)pyridin-4-yl)pyrrolo[2,1-f][1,2,4]triazin-5-yl)piperidin-3-yl)-5-(2-(difluoromethyl)pyridin-4-yl)thiophene-2-carboxamide]",4
2,"N#Cc1ccc(-c2ccc(C(=O)N[C@@H]3CCCN(c4cc(-c5ccnc(C(F)F)c5)n5ncnc(N)c45)C3)s2)cc1 [Example 543, (R)-N-(1-(4-amino-7-(2-(difluoromethyl)pyridin-4-yl)pyrrolo[2,1-f][1,2,4]triazin-5-yl)piperidin-3-yl)-5-(4-cyanophenyl)thiophene-2-carboxamide]",7
3,"N#Cc1cccc(-c2ccc(C(=O)N[C@@H]3CCCN(c4cc(-c5ccnc(C(F)F)c5)n5ncnc(N)c45)C3)s2)c1 [Example 544, (R)-N-(1-(4-amino-7-(2-(difluoromethyl)pyridin-4-yl)pyrrolo[2,1-f][1,2,4]triazin-5-yl)piperidin-3-yl)-5-(3-cyanophenyl)thiophene-2-carboxamide]",5
4,"CC(C)(C)OC(=O)N1CC=C(c2ccc(C(=O)N[C@@H]3CCCN(c4cc(-c5ccnc(C(F)F)c5)n5ncnc(N)c45)C3)s2)CC1 [Example 545, tert-butyl (R)-4-(5-((1-(4-amino-7-(2-(difluoromethyl)pyridin-4-yl)pyrrolo[2,1-f][1,2,4]triazin-5-yl)piperidin-3-yl)carbamoyl)thiophen-2-yl)-3,6-dihydropyridine-1(2H)-carboxylate]",22
5,"CC(C)(C)OC(=O)N1CC=C(c2ccc(C(=O)N[C@@H]3CCCN(c4cc(-c5ccnc(C(F)F)c5)n5ncnc(N)c45)C3)s2)C1 [Example 546, tert-butyl (R)-3-(5-((1-(4-amino-7-(2-(difluoromethyl)pyridin-4-yl)pyrrolo[2,1-f][1,2,4]triazin-5-yl)piperidin-3-yl)carbamoyl)thiophen-2-yl)-2,5-dihydro-1H-pyrrole-1-carboxylate]",29
6,"CC(=O)N1CC=C(c2cc(N3CCC[C@@H](NC(=O)c4ccc(-c5cncnc5)s4)C3)c3c(N)ncnn23)C1 [Example 548, (R)-N-(1-(7-(1-acetyl-2,5-dihydro-1H-pyrrol-3-yl)-4-aminopyrrolo[2,1-f][1,2,4]triazin-5-yl)piperidin-3-yl)-5-(pyrimidin-5-yl)thiophene-2-carboxamide]",90
7,"CC(=O)N1CC=C(c2cc(N3CCC[C@@H](NC(=O)c4ccc(-c5cn[nH]c5)s4)C3)c3c(N)ncnn23)C1 [Example 550, (R)-N-(1-(7-(1-acetyl-2,5-dihydro-1H-pyrrol-3-yl)-4-aminopyrrolo[2,1-f][1,2,4]triazin-5-yl)piperidin-3-yl)-5-(1H-pyrazol-4-yl)thiophene-2-carboxamide]",8
8,"CC(=O)N1CC=C(c2cc(N3CCC[C@@H](NC(=O)c4ccc(-c5cncc(C#N)c5)s4)C3)c3c(N)ncnn23)C1 [Example 551, (R)-N-(1-(7-(1-acetyl-2,5-dihydro-1H-pyrrol-3-yl)-4-aminopyrrolo[2,1-f][1,2,4]triazin-5-yl)piperidin-3-yl)-5-(5-cyanopyridin-3-yl)thiophene-2-carboxamide]",6
9,"CC(=O)N1CC=C(c2cc(N3CCC[C@@H](NC(=O)c4ccc(-c5cnc(C#N)nc5)s4)C3)c3c(N)ncnn23)C1 [Example 552, (R)-N-(1-(7-(1-acetyl-2,5-dihydro-1H-pyrrol-3-yl)-4-aminopyrrolo[2,1-f][1,2,4]triazin-5-yl)piperidin-3-yl)-5-(2-cyanopyrimidin-5-yl)thiophene-2-carboxamide]",27
10,"Nc1ncnn2c(-c3ccnc(C(F)F)c3)cc(N3CCC[C@@H](NC(=O)c4ccc(C5=CCNCC5)s4)C3)c12 [Example 553, (R)-N-(1-(4-amino-7-(2-(difluoromethyl)pyridin-4-yl)pyrrolo[2,1-f][1,2,4]triazin-5-yl)piperidin-3-yl)-5-(1,2,3,6-tetrahydropyridin-4-yl)thiophene-2-carboxamide]",16
11,"CC(=O)N1CC=C(c2cc(N3CCC[C@@H](NC(=O)c4sc(-c5ccnc(C(F)F)c5)cc4OCCN(C)C)C3)c3c(N)ncnn23)C1 [Example 555, (R)-N-(1-(7-(1-acetyl-2,5-dihydro-1H-pyrrol-3-yl)-4-aminopyrrolo[2,1-f][1,2,4]triazin-5-yl)piperidin-3-yl)-5-(2-(difluoromethyl)pyridin-4-yl)-3-(2-(dimethylamino)ethoxy)thiophene-2-carboxamide]",7
12,"CC(=O)N1CC=C(c2cc(N3CCC[C@@H](NC(=O)c4sc(-c5ccnc(F)c5)cc4OCCN(C)C)C3)c3c(N)ncnn23)C1 [Example 556, (R)-N-(1-(7-(1-acetyl-2,5-dihydro-1H-pyrrol-3-yl)-4-aminopyrrolo[2,1-f][1,2,4]triazin-5-yl)piperidin-3-yl)-3-(2-(dimethylamino)ethoxy)-5-(2-fluoropyridin-4-yl)thiophene-2-carboxamide]",6
13,COC(=O)N1CC=C(c2cc(N3CCC[C@@H](NC(=O)c4sc(Cl)cc4OC4CCNCC4)C3)c3c(N)ncnn23)C1 [Example 561],2
14,"COC(=O)N1CC=C(c2cc(N3CCC[C@@H](NC(=O)c4sc(Cl)cc4OC4CCN(C)CC4)C3)c3c(N)ncnn23)C1 [Example 562, methyl (R)-3-(4-amino-5-(3-(5-chloro-3-((1-methylpiperidin-4-yl)oxy)thiophene-2-carboxamido)piperidin-1-yl)pyrrolo[2,1-f][1,2,4]triazin-7-yl)-2,5-dihydro-1H-pyrrole-1-carboxylate]",2
15,"COC(=O)N1CC=C(c2cc(N3CCC[C@@H](NC(=O)c4sc(Cl)cc4OC4CCN(C(C)C)CC4)C3)c3c(N)ncnn23)C1 [Example 563, methyl (R)-3-(4-amino-5-(3-(5-chloro-3-((1-isopropylpiperidin-4-yl)oxy)thiophene-2-carboxamido)piperidin-1-yl)pyrrolo[2,1-f][1,2,4]triazin-7-yl)-2,5-dihydro-1H-pyrrole-1-carboxylate]",3
16,"COC(=O)N1CC=C(c2cc(N3CCC[C@@H](NC(=O)c4sc(Cl)cc4OC4CCN(CCO)CC4)C3)c3c(N)ncnn23)C1 [Example 564, methyl (R)-3-(4-amino-5-(3-(5-chloro-3-((1-(2-hydroxyethyl)piperidin-4-yl)oxy)thiophene-2-carboxamido)piperidin-1-yl)pyrrolo[2,1-f][1,2,4]triazin-7-yl)-2,5-dihydro-1H-pyrrole-1-carboxylate]",2
17,"COC(=O)N1CC=C(c2cc(N3CCC[C@@H](NC(=O)c4sc(Cl)cc4OC4CCN(C(C)=O)CC4)C3)c3c(N)ncnn23)C1 [Example 565, methyl (R)-3-(5-(3-(3-((1-acetylpiperidin-4-yl)oxy)-5-chlorothiophene-2-carboxamido)piperidin-1-yl)-4-aminopyrrolo[2,1-f][1,2,4]triazin-7-yl)-2,5-dihydro-1H-pyrrole-1-carboxylate]",3
18,"COC(=O)N1CC=C(c2cc(N3CCC[C@@H](NC(=O)c4sc(Cl)cc4OC4CCN(CC(F)F)CC4)C3)c3c(N)ncnn23)C1 [Example 566, methyl (R)-3-(4-amino-5-(3-(5-chloro-3-((1-(2,2-difluoroethyl)piperidin-4-yl)oxy)thiophene-2-carboxamido)piperidin-1-yl)pyrrolo[2,1-f][1,2,4]triazin-7-yl)-2,5-dihydro-1H-pyrrole-1-carboxylate]",12
19,"COC(=O)N1CC=C(c2cc(N3CCC[C@@H](NC(=O)c4sc(Cl)cc4OC4COC4)C3)c3c(N)ncnn23)C1 [Example 567, Methyl (R)-3-(4-amino-5-(3-(5-chloro-3-(oxetan-3-yloxy)thiophene-2-carboxamido)piperidin-1-yl)pyrrolo[2,1-f][1,2,4]triazin-7-yl)-2,5-dihydro-1H-pyrrole-1-carboxylate]",4
20,"COC(=O)N1CC=C(c2cc(N3CCC[C@@H](NC(=O)c4sc(Cl)cc4OC4CNC4)C3)c3c(N)ncnn23)C1 [Example 568, Methyl (R)-3-(4-amino-5-(3-(3-(azetidin-3-yloxy)-5-chlorothiophene-2-carboxamido)piperidin-1-yl)pyrrolo[2,1-f][1,2,4]triazin-7-yl)-2,5-dihydro-1H-pyrrole-1-carboxylate]",5
21,"COC(=O)N1CC=C(c2cc(N3CCC[C@@H](NC(=O)c4sc(Cl)cc4OC4CCNC4)C3)c3c(N)ncnn23)C1 (stereo partly drawn) [Example 569, Methyl 3-(4-amino-5-((3R)-3-(5-chloro-3-(pyrrolidin-3-yloxy)thiophene-2-carboxamido)piperidin-1-yl)pyrrolo[2,1-f][1,2,4]triazin-7-yl)-2,5-dihydro-1H-pyrrole-1-carboxylate]",3
22,"COC(=O)N1CC=C(c2cc(N3CCC[C@@H](NC(=O)c4sc(Cl)cc4OC4CCNC4)C3)c3c(N)ncnn23)C1 (stereo partly drawn) [Example 570, Methyl 3-(4-amino-5-((3R)-3-(5-chloro-3-(pyrrolidin-3-yloxy)thiophene-2-carboxamido)piperidin-1-yl)pyrrolo[2,1-f][1,2,4]triazin-7-yl)-2,5-dihydro-1H-pyrrole-1-carboxylate]",3
23,"COC(=O)N1CC=C(c2cc(N3CCC[C@@H](NC(=O)c4sc(Cl)cc4OCC4CCNCC4)C3)c3c(N)ncnn23)C1 [Example 571, Methyl (R)-3-(4-amino-5-(3-(5-chloro-3-(piperidin-4-ylmethoxy)thiophene-2-carboxamido)piperidin-1-yl)pyrrolo[2,1-f][1,2,4]triazin-7-yl)-2,5-dihydro-1H-pyrrole-1-carboxylate]",8

# Source: US20260250290A1 (BRISTOL-MYERS SQUIBB COMPANY, priority 2023, published 2026)
